Measured values: patent US20170326106A1, “TREATMENT OF AGE RELATED MACULAR DEGENERATION WITH A SMALL ACTIVE CHOROIDAL NEOVASCULARIZATION LESION” (BAYER HEALTHCARE LLC, priority 2014, published 2017)

Assays:
Assay type in all cases: in vivo, human
[1] = system: Chinese subjects with age-related neovascular or wet age-related macular degeneration; assay: Randomized double-blind clinical study, BCVA of the study eye by ETDRS
Method: (§1) A total of 304 Chinese subjects with age-related neovascular or wet age-related macular degeneration were enrolled in a randomized, double-blind clinical study to assess the efficacy of intravitreal (IVT) administrated aflibercept compared with V®-PDT on the mean change in BCVA (Best corrected visual acuity) from baseline to Week 28. BCVA of the study eye was assessed according to the standard procedures developed for the ETDRS (Early Treatment Diabetic Retinopathy Study) adapted for Age Related Eye Disease Study (AREDS). The key inclusion criteria were as follows: • Signed and dated written ICF. • Men and women ≧50 years of age. • Active predominantly classic, subfoveal choroidal neovascularization (CNV) lesions secondary to AMD, including juxtafoveal lesions that affect the fovea, as evidenced by fluorescein angiography (FA), in the study eye. • The area of the CNV had to occupy at least 50% of the total lesion. • ETDRS best corrected visual acuity (BCVA) of 73 to 25 letters in the study eye (Snellen activity equivalent of 20/40 to 20/320 in the study eye).
(§2) The following key exclusion criteria applied for the study eye: • Total lesion size is greater than 12 disc areas (30.5 mm^2, including blood, scars and neovascularization), as assessed by FA • Sub-retinal hemorrhages that is >50% of the total lesion area, or if the blood is under the fovea and is 1 or more disc areas in size. (If the blood is under the fovea, then the fovea must be surrounded by 270 degrees by visible CNV.) • Presence of CNV with an origin other than wAMD. History or clinical evidence of diabetic retinopathy, diabetic macular edema or any retinal vascular disease other than wAMD. Particular attention should be made to exclude subjects with polypoidal choroidal vasculopathy (PCV). • Presence of scar, fibrosis, or atrophy involving the center of the fovea that indicates substantial irreversible vision loss. • Presence of retinal pigment epithelial tears or rips involving the macula.
Eligible patients were randomized 3:1 to receive aflibercept (VTE) 2Q8 or V®-PDT (228 VTE+76 PDT). 194 patients with active CNV lesions >=50% (147 VTE2Q8+47 PDT) and 106 patients with active CNV lesions <50% (78 VTE2Q8+28 PDT) were included. The lesion size was determined by a central reading center based on the MPS protocol [Macular Photocoagulation Study Group, Arch Ophthalmol 1991, 109:1242-1257]. The active CNV size, the area of CNV (mm^2) as well as the total lesion size was measured using the FA. The central retinal thickness was determined by optical coherence tomography. In the VTE2Q8 group patients were treated with 2 mg (0.05 mL) aflibercept administered intravitreally at baseline, week 4, 8, 16, 24, 32, 40 and 48. In the PDT group V®-PDT was performed at baseline and potential PDT retreatment according to the guidelines for the use of PDT treatment in wAMD [Verteporfin Roundtable Participants, Retina. 2005; 25(2):119-34] were performed at week 12 and 24. At Week 28, after assessment of the primary and secondary endpoints, subjects in the PDT→VEGF Trap-Eye group received an IVT injection of 2.0 mg VEGF Trap-Eye, followed by additional 2.0 mg VEGF Trap-Eye injections at Weeks 32, 36, 40, and 48.

[2] = system: Chinese subjects with age-related neovascular or wet age-related macular degeneration; assay: Same clinical study, CNV lesion size by fluorescein angiography (MPS protocol)
Method: as §1, §2
(§3) Eligible patients were randomized 3:1 to receive aflibercept (VTE) 2Q8 or V®-PDT (228 VTE+76 PDT). 194 patients with active CNV lesions >=50% (147 VTE2Q8+47 PDT) and 106 patients with active CNV lesions <50% (78 VTE2Q8+28 PDT) were included. The lesion size was determined by a central reading center based on the MPS protocol [Macular Photocoagulation Study Group, Arch Ophthalmol 1991, 109:1242-1257]. The active CNV size, the area of CNV (mm^2) as well as the total lesion size was measured using the FA. The central retinal thickness was determined by optical coherence tomography. In the VTE2Q8 group patients were treated with 2 mg (0.05 mL) aflibercept administered intravitreally at baseline, week 4, 8, 16, 24, 32, 40 and 48. […]

[3] = system: Chinese subjects with age-related neovascular or wet age-related macular degeneration; assay: Same clinical study, central retinal thickness by optical coherence tomography
Method: as §1, §2, §3

[4] = active CNV lesion <50%, week 28
[5] = active CNV lesion <50%, week 52, PDT group on VEGF Trap-Eye from week 28
[6] = active CNV lesion >=50%, week 28
[7] = active CNV lesion >=50%, week 52, PDT group on VEGF Trap-Eye from week 28

Aflibercept [VTE2Q8]
Mean change of BCVA ([1]; active CNV lesion <50% of total lesion size, week 28, from baseline): 16.7 letters | Mean change of BCVA ([1]; active CNV lesion <50% of total lesion size, week 28, from baseline, listed as aflibercept): 16.7 (−21 to 59) letters | Mean change of BCVA ([1]; active CNV lesion <50% of total lesion size, week 52, from baseline, PDT group received IVT 2.0 mg VEGF Trap-Eye from week 28): 18.1 letters | Proportion of patients who gained 5 or more letters [1, 4]: 85.9% | Proportion of patients who gained 10 or more letters [1, 4]: 73.1% | Proportion of patients who gained 15 or more letters [1, 4]: 57.7% | Proportion of patients who lost 5 or more letters [1, 4]: 5.1% | Proportion of patients who lost 10 or more letters [1, 4]: 3.8% | Proportion of patients who lost 15 or more letters [1, 4]: 2.6% | Proportion of patients who maintained vision (letter loss <15 letters) [1, 4]: 97.4% | Proportion of patients who gained 5 or more letters [1, 5]: 88.5% | Proportion of patients who gained 10 or more letters [1, 5]: 78.2% | Proportion of patients who gained 15 or more letters [1, 5]: 69.2% | Proportion of patients who lost 5 or more letters [1, 5]: 6.4% | Proportion of patients who lost 10 or more letters [1, 5]: 3.8% | Proportion of patients who lost 15 or more letters [1, 5]: 3.8% | Proportion of patients who maintained vision (letter loss <15 letters) [1, 5]: 96.2% | Mean change of BCVA ([1]; active CNV lesion >=50% of total lesion size, week 28, from baseline): 12.7 letters | Mean change of BCVA ([1]; active CNV lesion >=50% of total lesion size, week 28, from baseline, listed as aflibercept): 12.7 (−29 to 40) letters | Mean change of BCVA ([1]; active CNV lesion >=50% of total lesion size, week 52, from baseline, PDT group received IVT 2.0 mg VEGF Trap-Eye from week 28): 14.0 letters | Proportion of patients who gained 5 or more letters [1, 6]: 77.6% | Proportion of patients who gained 10 or more letters [1, 6]: 66.7% | Proportion of patients who gained 15 or more letters [1, 6]: 45.6% | Proportion of patients who lost 5 or more letters [1, 6]: 6.8% | Proportion of patients who lost 10 or more letters [1, 6]: 2.7% | Proportion of patients who lost 15 or more letters [1, 6]: 0.7% | Proportion of patients who maintained vision (letter loss <15 letters) [1, 6]: 99.3% | Proportion of patients who gained 5 or more letters [1, 7]: 78.9% | Proportion of patients who gained 10 or more letters [1, 7]: 67.3% | Proportion of patients who gained 15 or more letters [1, 7]: 53.1% | Proportion of patients who lost 5 or more letters [1, 7]: 8.2% | Proportion of patients who lost 10 or more letters [1, 7]: 4.1% | Proportion of patients who lost 15 or more letters [1, 7]: 2.0% | Proportion of patients who maintained vision (letter loss <15 letters) [1, 7]: 98.0% | mean change from baseline BCVA letter score ([1]; whole study population irrespective of the active CNV lesion size, week 28, range in brackets): 14.0 (−29 to 59) | Mean change in CNV lesion size [2, 4]: −0.688 mm^2 | Mean change in CNV lesion size [2, 5]: −0.688 mm^2 | Mean change in CNV lesion size [2, 6]: −1.009 mm^2 | Mean change in CNV lesion size [2, 7]: −1.173 mm^2 | Mean change in central retinal thickness [3, 4]: −180.6 um | Mean change in central retinal thickness [3, 5]: −185.5 um | Mean change in central retinal thickness [3, 6]: −180.4 um | Mean change in central retinal thickness [3, 7]: −192.1 um
